The source made the active and inactive calls.
Experiments:
[1] = molecular target: T1, Ubiquitin-conjugating enzyme E2 N (Homo sapiens, UniProt P61088); assay type: functional
T1 sequence (P61088 whole entry): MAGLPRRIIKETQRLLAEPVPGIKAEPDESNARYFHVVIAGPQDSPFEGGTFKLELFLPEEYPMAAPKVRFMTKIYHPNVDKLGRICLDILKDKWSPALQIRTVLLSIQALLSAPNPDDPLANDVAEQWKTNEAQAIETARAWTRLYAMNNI

Large T antigen = Large T antigen (Simian virus 40, UniProt P03070); assay type: functional, Betapolyomavirus macacae;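 also: Confirmatory-stage PubChem screen for compounds that inhibit SV40 T antigen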
Bcl-2-like protein 1 = Bcl-2-like protein 1 (Homo sapiens, UniProt Q07817); assay: blockers of BCLXL peptide binding – biochemical, fluorescence polarization, 1536-well, selectivity assay for MCL1 inhibitor project, dose response (AID 2218)
Estrogen receptor beta [2] = molecular target: T2, Estrogen receptor beta (Homo sapiens, UniProt Q92731); assay: blockers of SRC-3 recruitment to ERβ – biochemical, ELISA, streptavidin-HRP readout, orthogonal assay, confirmation (AID 1060)
[3] = molecular target: T3, Histone-lysine N-methyltransferase NSD2 (Homo sapiens, UniProt O96028); assay type: biochemical
T3 sequence (O96028 whole entry): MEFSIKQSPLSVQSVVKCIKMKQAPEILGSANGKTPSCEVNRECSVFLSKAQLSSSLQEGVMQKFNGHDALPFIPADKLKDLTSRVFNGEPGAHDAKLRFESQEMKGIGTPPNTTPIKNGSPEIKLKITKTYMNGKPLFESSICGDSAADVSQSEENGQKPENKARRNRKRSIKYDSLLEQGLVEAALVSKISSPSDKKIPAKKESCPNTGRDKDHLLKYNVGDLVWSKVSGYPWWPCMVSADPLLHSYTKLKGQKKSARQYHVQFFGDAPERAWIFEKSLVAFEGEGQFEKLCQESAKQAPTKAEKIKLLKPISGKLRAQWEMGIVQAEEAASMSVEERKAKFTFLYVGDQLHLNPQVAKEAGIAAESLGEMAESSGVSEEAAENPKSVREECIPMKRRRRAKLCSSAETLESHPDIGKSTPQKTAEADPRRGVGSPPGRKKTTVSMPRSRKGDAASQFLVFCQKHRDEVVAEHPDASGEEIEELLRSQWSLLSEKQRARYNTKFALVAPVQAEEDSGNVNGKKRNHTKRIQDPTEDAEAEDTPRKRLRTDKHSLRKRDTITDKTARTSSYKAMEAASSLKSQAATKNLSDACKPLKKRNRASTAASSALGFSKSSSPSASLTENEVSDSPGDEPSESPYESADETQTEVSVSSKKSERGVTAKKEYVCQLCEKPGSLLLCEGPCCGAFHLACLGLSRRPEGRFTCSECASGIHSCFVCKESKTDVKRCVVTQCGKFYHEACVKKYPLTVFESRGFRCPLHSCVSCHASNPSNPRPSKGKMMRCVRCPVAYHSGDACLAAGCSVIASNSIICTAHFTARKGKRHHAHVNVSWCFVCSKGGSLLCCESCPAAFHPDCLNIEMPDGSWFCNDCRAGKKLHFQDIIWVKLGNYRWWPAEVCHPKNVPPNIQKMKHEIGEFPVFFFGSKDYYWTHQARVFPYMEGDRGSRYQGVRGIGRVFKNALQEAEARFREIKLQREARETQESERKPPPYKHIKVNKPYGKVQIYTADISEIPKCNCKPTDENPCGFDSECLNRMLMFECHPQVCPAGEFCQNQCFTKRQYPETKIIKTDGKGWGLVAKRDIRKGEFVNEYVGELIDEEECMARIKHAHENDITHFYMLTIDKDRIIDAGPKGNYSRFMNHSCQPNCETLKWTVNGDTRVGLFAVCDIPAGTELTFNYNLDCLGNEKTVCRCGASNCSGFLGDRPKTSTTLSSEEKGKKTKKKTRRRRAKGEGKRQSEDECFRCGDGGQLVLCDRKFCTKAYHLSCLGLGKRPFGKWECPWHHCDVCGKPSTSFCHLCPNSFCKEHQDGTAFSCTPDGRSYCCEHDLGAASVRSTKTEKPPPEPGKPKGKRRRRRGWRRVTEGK

[4] = molecular target: T4, Dual specificity protein phosphatase 6 (Rattus norvegicus, UniProt Q64346); assay: inhibition of rat DUSP6 enzyme activity – biochemical, in vitro, primary screen (AID 425)
T4 sequence (Q64346 whole entry): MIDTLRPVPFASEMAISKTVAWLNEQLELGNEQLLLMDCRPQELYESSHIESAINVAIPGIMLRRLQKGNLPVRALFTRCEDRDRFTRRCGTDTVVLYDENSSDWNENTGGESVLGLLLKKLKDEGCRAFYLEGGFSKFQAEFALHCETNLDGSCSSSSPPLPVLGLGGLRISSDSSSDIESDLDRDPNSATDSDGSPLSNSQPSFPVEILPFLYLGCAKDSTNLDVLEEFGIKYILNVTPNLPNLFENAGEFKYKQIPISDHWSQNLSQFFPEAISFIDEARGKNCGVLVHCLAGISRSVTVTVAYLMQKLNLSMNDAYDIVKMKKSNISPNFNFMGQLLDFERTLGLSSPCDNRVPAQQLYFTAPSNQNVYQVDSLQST

[5] = molecular target: T1, Ubiquitin-conjugating enzyme E2 N; assay type: functional; remark: listed apart in the source
Bcl-2-related protein A1 = molecular target: T5, Bcl-2-related protein A1 (Mus musculus, UniProt Q07440); assay type: functional;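 also: confirmatory dose–response counterscreen on Bfl-1, used to check hits from a UBC13 polyubiquitin inhibitor campaign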
T5 sequence (Q07440 whole entry): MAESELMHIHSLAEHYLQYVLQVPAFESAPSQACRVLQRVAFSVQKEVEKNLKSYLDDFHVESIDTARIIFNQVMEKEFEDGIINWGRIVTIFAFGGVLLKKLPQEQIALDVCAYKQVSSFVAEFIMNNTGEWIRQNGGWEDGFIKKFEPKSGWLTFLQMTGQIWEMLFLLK

[6] = molecular target: Induced myeloid leukemia cell differentiation protein Mcl-1 (Homo sapiens, UniProt Q07820); assay: blockers of MCL1 binding to BIM peptide – biochemical, fluorescence polarization, BIM-BH3 peptide, 1536-well, dose response (AID 2217)
Estrogen receptor = molecular target: T6, Estrogen receptor (Homo sapiens, UniProt P03372);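 also: potency for inhibiting coactivator peptide recruitment to the receptor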
T6 sequence (P03372 whole entry): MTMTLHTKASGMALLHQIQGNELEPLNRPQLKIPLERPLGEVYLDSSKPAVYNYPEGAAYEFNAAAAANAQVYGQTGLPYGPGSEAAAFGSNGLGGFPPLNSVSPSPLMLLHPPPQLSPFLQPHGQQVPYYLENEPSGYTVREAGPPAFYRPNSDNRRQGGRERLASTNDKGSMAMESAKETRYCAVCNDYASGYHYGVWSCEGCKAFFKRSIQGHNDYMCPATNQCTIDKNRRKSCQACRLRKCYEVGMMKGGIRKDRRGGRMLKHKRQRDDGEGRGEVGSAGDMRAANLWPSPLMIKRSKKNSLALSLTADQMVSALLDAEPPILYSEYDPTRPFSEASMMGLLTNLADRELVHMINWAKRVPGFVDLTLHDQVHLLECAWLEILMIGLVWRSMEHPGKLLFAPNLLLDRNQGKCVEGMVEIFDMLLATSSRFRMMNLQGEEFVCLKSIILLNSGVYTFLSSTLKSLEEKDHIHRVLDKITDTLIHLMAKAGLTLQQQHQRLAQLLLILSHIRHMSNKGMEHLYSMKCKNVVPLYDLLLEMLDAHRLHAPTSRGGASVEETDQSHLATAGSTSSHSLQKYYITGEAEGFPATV

Estrogen receptor beta [7] = molecular target: T2, Estrogen receptor beta
[8] = molecular target: T7, Carboxy-terminal domain RNA polymerase II polypeptide A small phosphatase 1 (Homo sapiens, UniProt Q9GZU7); assay: CTDSP1 inhibitors, concentration-response, biochemical, absorbance readout, ultra-high-throughput screen actives (AID 540297); assay type: functional
T7 sequence (Q9GZU7 whole entry): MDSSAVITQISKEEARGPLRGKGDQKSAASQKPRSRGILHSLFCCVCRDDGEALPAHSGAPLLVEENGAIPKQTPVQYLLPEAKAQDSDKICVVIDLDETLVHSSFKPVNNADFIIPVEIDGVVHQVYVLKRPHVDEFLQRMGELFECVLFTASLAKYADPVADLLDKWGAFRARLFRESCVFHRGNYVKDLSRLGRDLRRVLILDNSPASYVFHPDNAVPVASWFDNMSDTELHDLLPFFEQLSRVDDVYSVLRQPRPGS

Leucine aminopeptidase = Leucine aminopeptidase (Plasmodium falciparum 3D7, UniProt Q8IL11); assay: P. falciparum M17LAP inhibitors, primary screen, biochemical, fluorogenic H-Leu-NHMec substrate, 1536-well (AID 1619); assay type: functional
Genome polyprotein = Genome polyprotein (dengue virus type 2, UniProt P29990); assay: flavivirus cap methylation enzyme inhibition – biochemical, confirmation dose response, primary screen (AID 588689); assay type: functional
[9] = molecular target: T8, Mannose-6-phosphate isomerase (Homo sapiens, UniProt P34949); assay: MPI inhibition at elevated mannose 6-phosphate – biochemical, fluorescence intensity, high mannose 6-phosphate, primary screen (AID 1220)
T8 sequence (P34949 whole entry): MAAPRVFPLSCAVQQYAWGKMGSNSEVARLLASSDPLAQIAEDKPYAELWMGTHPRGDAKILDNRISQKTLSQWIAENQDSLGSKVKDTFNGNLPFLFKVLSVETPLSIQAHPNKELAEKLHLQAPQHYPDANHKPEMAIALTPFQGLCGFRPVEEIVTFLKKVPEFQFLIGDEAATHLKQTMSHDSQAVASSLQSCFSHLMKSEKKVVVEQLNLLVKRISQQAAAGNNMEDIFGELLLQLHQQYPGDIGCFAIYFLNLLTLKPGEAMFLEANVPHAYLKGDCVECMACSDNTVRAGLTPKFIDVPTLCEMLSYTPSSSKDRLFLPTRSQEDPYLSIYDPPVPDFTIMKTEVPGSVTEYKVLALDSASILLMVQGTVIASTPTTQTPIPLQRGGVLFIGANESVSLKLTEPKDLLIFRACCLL

[10] = molecular target: Glucose-6-phosphate 1-dehydrogenase (Homo sapiens, UniProt P11413); assay: inhibition of Homo sapiens G6PD, dose series – biochemical, fluorescence, selectivity assay for P. falciparum G6PD inhibitor project, dose response (AID 504792); assay type: functional
Albumin = Albumin (Bos taurus, UniProt P02769); assay: Counterscreen for inhibitors of T-cell receptor (TCR)-CD3 interaction: Fluorescence-based biochemical high throughput dose response assay to identify inhibitors of T-cell receptor (TCR)-CD3 interaction using a TAMRA-labeled BSA probe.; assay type: functional
[11] = molecular target: Intestinal-type alkaline phosphatase (Homo sapiens, UniProt P09923); assay: inhibition of human intestinal alkaline phosphatase – biochemical, dose response (AID 488876); assay type: functional
[12] = molecular target: Intestinal-type alkaline phosphatase (Mus musculus, UniProt P24822); assay: PubChem AID 488785; assay type: functional
[13] = molecular target: T9, Alkaline phosphatase, tissue-nonspecific isozyme (Homo sapiens, UniProt P05186); assay: TNAP enzyme inhibition by screening hits, dose response, selectivity assay for mouse IAP inhibitor project, biochemical, human TNAP, uHTS hits (AID 488906); assay type: functional
T9 sequence (P05186 whole entry): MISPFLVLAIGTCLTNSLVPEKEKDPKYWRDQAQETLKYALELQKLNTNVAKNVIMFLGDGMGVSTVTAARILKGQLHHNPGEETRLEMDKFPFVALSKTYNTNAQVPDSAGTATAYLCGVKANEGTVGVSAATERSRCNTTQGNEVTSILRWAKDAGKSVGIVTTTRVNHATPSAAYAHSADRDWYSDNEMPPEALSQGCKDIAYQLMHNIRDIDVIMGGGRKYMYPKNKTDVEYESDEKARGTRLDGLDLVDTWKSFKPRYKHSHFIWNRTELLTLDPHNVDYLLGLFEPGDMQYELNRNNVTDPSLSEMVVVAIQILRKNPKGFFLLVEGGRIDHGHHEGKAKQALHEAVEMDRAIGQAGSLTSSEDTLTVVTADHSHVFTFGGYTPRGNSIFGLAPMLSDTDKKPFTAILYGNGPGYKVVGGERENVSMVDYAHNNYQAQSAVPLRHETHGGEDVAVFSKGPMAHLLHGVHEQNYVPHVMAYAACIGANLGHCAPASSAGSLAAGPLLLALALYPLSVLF

T2 sequence (Q92731 whole entry): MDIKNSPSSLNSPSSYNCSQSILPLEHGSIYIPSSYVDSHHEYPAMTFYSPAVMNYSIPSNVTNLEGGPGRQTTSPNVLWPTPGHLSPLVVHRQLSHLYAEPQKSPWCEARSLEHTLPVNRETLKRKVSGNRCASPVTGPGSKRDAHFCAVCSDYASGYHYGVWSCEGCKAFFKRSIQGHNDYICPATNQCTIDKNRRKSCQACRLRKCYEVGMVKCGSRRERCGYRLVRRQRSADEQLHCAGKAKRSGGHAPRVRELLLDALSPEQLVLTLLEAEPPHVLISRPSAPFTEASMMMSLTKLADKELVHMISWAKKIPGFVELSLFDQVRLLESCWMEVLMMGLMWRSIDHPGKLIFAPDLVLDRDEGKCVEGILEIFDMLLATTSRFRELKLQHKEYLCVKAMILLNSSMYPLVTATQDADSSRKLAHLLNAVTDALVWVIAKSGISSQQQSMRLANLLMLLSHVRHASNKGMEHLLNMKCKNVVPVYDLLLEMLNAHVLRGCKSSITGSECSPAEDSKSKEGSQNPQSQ
Chain of Bcl-2-like protein 1 (Q07817 whole entry): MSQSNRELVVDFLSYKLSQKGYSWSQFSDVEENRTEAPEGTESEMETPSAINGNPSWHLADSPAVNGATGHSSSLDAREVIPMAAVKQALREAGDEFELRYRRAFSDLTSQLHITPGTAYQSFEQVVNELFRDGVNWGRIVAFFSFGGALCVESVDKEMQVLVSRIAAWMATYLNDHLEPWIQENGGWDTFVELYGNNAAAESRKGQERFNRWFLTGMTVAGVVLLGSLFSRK
Chain of Induced myeloid leukemia cell differentiation protein Mcl-1 (Q07820 whole entry): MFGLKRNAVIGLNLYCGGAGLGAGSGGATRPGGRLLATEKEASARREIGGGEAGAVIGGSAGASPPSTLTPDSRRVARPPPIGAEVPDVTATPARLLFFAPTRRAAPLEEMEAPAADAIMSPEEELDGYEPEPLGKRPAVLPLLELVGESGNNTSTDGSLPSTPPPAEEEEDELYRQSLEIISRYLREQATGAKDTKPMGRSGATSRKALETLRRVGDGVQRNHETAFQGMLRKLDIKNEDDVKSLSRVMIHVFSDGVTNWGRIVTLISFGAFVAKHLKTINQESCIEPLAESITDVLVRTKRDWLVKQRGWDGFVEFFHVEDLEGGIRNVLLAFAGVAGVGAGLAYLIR
Chain of Glucose-6-phosphate 1-dehydrogenase (P11413 whole entry): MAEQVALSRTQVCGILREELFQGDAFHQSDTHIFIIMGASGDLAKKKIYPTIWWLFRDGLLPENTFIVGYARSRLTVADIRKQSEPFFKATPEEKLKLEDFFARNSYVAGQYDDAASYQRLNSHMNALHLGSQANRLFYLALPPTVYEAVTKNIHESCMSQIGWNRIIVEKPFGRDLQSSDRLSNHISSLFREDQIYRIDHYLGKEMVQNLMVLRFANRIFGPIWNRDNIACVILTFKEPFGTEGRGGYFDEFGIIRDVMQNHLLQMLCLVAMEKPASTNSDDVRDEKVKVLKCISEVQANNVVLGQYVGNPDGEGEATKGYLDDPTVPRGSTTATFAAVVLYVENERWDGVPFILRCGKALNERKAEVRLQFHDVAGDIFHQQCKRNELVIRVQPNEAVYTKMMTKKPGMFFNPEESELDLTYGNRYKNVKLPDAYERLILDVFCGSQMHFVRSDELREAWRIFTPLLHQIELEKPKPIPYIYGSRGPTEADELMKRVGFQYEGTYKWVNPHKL
Chain of Leucine aminopeptidase (Q8IL11 whole entry): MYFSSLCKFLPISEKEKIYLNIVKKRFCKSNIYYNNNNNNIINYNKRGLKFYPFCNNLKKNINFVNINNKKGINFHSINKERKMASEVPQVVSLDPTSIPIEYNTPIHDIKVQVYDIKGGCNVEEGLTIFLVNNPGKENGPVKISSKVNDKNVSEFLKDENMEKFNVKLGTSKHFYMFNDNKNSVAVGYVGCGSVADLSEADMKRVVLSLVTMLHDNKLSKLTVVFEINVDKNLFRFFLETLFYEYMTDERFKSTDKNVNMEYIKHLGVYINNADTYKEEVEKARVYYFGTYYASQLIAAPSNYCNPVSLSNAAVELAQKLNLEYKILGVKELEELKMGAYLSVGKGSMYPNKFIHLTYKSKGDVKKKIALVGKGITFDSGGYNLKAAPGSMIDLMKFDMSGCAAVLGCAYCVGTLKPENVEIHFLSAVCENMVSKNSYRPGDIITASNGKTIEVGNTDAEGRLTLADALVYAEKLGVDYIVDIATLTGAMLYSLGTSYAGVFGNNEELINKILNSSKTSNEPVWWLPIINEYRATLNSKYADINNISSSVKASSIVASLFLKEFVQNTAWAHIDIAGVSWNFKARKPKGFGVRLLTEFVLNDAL
Chain of Large T antigen (P03070 whole entry): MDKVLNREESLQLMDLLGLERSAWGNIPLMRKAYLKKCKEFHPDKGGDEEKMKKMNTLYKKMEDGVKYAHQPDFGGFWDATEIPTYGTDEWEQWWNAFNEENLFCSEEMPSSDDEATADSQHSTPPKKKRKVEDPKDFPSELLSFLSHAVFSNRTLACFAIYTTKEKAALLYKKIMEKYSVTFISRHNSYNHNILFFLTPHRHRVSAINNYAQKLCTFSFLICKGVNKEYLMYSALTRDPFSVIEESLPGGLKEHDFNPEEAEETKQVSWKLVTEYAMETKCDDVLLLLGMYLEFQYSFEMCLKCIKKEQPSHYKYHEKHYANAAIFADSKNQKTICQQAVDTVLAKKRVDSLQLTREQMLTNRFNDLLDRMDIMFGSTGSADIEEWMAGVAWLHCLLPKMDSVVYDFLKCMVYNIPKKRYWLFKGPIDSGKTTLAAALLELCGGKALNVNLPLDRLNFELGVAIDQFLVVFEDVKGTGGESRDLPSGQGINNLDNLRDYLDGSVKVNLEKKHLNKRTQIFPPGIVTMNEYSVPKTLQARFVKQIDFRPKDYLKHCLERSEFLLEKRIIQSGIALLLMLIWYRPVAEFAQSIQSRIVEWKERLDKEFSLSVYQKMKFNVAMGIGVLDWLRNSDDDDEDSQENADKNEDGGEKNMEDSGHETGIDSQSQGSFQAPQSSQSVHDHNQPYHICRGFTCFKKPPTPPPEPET
Chain of Albumin (P02769 whole entry): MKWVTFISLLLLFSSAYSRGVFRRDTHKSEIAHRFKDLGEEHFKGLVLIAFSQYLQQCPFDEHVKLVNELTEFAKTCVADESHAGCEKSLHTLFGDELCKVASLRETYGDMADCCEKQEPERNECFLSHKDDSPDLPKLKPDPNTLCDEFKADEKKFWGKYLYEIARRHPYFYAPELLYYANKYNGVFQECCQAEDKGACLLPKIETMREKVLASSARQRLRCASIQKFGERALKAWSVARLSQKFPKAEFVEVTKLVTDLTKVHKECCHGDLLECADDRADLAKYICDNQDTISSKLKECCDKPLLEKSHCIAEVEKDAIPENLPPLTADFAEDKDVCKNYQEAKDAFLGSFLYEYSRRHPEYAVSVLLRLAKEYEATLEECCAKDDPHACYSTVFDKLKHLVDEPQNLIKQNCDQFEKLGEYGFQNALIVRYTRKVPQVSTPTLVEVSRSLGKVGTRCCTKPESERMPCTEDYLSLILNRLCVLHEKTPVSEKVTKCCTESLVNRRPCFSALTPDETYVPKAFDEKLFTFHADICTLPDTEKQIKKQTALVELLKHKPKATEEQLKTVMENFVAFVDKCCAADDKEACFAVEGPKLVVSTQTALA
Chain of Intestinal-type alkaline phosphatase (Mus musculus, UniProt P24822) (P24822 whole entry): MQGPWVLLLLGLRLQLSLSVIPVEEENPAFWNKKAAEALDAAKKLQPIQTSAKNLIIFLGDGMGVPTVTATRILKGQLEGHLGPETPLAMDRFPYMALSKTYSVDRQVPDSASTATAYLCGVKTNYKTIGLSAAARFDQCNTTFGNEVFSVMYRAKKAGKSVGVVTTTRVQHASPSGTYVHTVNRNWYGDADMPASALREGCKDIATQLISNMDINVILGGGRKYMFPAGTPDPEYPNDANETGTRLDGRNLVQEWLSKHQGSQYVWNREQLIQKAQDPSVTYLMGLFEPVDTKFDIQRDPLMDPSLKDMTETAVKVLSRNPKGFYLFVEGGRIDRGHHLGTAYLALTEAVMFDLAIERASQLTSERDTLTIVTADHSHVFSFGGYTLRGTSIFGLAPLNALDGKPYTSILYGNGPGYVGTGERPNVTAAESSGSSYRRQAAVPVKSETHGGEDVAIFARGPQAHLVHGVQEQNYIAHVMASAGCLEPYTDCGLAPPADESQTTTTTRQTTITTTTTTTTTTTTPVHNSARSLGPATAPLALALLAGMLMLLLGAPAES
Chain of Genome polyprotein (P29990 2492-3391 limits assumed): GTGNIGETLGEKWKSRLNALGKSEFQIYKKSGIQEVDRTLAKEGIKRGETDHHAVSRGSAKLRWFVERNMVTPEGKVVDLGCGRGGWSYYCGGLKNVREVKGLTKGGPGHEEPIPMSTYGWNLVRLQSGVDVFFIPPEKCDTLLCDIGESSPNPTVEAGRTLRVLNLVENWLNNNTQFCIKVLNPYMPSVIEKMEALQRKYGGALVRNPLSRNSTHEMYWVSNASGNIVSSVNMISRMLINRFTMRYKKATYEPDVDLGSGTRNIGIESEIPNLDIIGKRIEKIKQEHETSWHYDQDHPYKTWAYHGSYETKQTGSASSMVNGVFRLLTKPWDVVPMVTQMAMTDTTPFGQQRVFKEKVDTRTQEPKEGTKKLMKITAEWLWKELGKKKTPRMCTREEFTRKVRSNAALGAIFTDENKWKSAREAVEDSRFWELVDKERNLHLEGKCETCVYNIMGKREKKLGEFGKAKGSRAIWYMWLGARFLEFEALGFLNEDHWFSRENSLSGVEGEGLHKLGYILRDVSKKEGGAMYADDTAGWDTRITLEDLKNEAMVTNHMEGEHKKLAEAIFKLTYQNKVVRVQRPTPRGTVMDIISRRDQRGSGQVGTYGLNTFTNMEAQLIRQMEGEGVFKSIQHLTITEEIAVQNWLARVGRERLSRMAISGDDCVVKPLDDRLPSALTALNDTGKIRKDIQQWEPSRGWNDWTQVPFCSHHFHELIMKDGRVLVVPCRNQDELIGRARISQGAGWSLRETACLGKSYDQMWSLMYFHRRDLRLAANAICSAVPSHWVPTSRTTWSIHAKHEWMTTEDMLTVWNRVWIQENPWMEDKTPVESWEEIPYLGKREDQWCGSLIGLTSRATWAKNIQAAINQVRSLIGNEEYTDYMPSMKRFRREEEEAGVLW

c1coc(-c2nc(-c3ccco3)c(-c3ccco3)nc2-c2ccco2)c1
IC50 [1]: 8.49 µM (active) | IC50 (Large T antigen): 76.4 µM (active) | IC50 (Bcl-2-like protein 1): > 109 µM (not active) | IC50 (Estrogen receptor beta [2]): > 50 µM (not active) | AC50 [3]: > 20 µM (inactive) | IC50 [4]: > 10 µM (not active) | IC50 [5]: 3.79 µM (active) | IC50 (Bcl-2-related protein A1): 0.36 µM (active) | IC50 [6]: > 1.34 µM (active)

CC1CCN(S(=O)(=O)c2ccc(NC(=O)Cc3cccs3)cc2)CC1
IC50 (Estrogen receptor): 9.49 µM (active) | IC50 (Estrogen receptor beta [7]): 5.52 µM (active) | IC50 (Estrogen receptor beta [2]): 0.127 µM (not active) | IC50 [8]: 3.87 µM (active)

CCCCc1ccc(C(=O)NC(C(=O)O)C(C)C)cc1 (stereo unspecified)
IC50 (Leucine aminopeptidase): 4.71 µM (active)

O=C(CCc1ccc(S(=O)(=O)N2CCOCC2)cc1)N/N=C/c1ccc(O)c(O)c1O
IC50 (Bcl-2-like protein 1): > 109 µM (not active) | IC50 (Genome polyprotein): 51.3 µM (active) | IC50 [9]: 16.4 µM (active) | IC50 [10]: 48.7 µM (inactive) | IC50 (Albumin): > 94.1 µM (inactive) | IC50 [6]: 2.33 µM (active)

CN(c1ccccc1C(=O)O)S(=O)(=O)c1ccc2c3c(cccc13)C(=O)N2
IC50 (Estrogen receptor): 18.7 µM (active) | IC50 (Estrogen receptor beta [7]): 3.85 µM (active) | IC50 (Estrogen receptor beta [2]): 6.16 µM (not active) | IC50 [11]: > 100 µM (inactive) | IC50 [12]: 11.3 µM (active) | IC50 [13]: > 100 µM (inactive)
